Measurements from patent publication US9345703B2, “Kappa opioid receptor effectors and uses thereof” (University of Kansas, priority 2011, dated 2016).

How the values were obtained:
Assay type in all cases: cell-based
MOR = MOR (Homo sapiens, UniProt P35372); test: High content imaging based β-arrestin translocation assay, MOR agonist (MOR HCS); details: n = 2, read-out: Average Potency MOR HCS
Text: (§1) In this campaign, two assay platforms were employed to evaluate KOR activity and selectivity: the KOR1 DISCOVERX β-Arrestin […] assay and an imaging based β-arrestin translocation assay for confirmatory and selectivity assays. The KOR1 DISCOVERX β-Arrestin […] assay is a commercial platform for direct measurement of GPCR (G protein-coupled receptor) activation by detection of β-Arrestin binding to the KOR. […] In cells that stably express these fusion proteins, ligand stimulation results in the recruitment of β-Arrestin by the GPCR. This interaction encourages the complementation of the two β-galactosidase fragments resulting in the formation of a functional enzyme that converts substrate in the assay medium to a detectable signal. The imaging based high-content β-arrestin translocation assay is based upon the redistribution of β-Arrestin linked to green fluorescent protein (GFP) to the cell surface and detection (Barak, et al. (1997) J. Biol. Chem. 272:27497-27500).
(§2) Initially, a portion (approximately 290,000 compounds) of the MLSMR compound collection was tested in the KOR1 DISCOVERX β-arrestin primary kappa opioid (KOP) agonist and antagonist screens (PUBCHEM AID 1777 and 1778, respectively) at a single concentration point (10 μM). […] These compounds were concurrently tested in a β-galactosidase counterscreen assay (PUBCHEM AID 1966) to assess the possibility that these compounds might inhibit the reporting enzyme. […] The KOR:DOR:MOR selectivity of the compounds was determined using the analogous β-arrestin translocation assays for the DOR (PUBCHEM AID 2370 and 2357, for agonists and antagonist, respectively) and the MOR (PUBCHEM AID 2352 and 2420, for agonists and antagonists, respectively).

KOR [1] = target: T1, KOR (Homo sapiens, UniProt P41145); test: DISCOVERX β-arrestin […] assay, agonist mode (KOR DRx); details: for Emax (%): at highest concentration tested, compared to dynorphin A (Emax=100%); for EC50: agonist
T1 sequence (P41145 whole entry): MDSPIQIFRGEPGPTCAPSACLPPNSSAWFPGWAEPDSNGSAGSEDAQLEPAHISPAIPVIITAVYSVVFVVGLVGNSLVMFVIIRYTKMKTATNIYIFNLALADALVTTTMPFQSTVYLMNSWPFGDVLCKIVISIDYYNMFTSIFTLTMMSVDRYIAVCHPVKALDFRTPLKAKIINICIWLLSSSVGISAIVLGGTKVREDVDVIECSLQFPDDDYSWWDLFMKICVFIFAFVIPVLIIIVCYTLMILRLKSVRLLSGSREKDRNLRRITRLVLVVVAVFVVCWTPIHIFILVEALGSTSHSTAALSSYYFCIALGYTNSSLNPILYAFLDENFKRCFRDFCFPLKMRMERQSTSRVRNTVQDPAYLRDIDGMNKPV
Text: as §1, with “signal.” for “signal. The imaging based high-content β-arrestin translocation assay is based upon the redistribution of β-Arrestin linked to green fluorescent protein (GFP) to the cell surface and detection (Barak, et al. (1997) J. Biol. Chem. 272:27497-27500).”

KOR [2] = target: T1, KOR; test: High content imaging based β-arrestin translocation assay, KOR agonist (KOR HCS); details: n = 2, read-out: Average Potency KOR HCS
Text: as §1, §2

[3] = n = 3, read-out: Average Potency KOR DRx
[4] = n = 4, Table 11, read-out: Potency, EC50 (DRx)

MOR, sequence (P35372 whole entry, the tested form may be a part): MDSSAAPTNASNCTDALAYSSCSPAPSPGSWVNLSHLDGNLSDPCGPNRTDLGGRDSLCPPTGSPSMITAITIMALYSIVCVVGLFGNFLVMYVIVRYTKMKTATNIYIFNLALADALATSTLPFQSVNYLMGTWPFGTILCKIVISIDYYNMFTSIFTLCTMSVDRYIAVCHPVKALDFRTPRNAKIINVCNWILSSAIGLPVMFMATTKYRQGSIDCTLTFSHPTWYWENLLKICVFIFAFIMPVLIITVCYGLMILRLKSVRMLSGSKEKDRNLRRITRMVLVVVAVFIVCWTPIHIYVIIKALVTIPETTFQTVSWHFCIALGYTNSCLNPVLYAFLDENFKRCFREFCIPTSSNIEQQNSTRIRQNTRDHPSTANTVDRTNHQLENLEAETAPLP

Row | SMILES | EC50 (MOR) [µM] | Emax (%) (KOR [1]) | EC50 (KOR [2]) [µM] | EC50 (KOR [1]; [3]) [µM] | Emax (KOR [1]) [%] | EC50 (KOR [1]; [4]) [µM]
1 | Cc1cc(C)c(CSc2nnc(-c3ccccn3)n2Cc2ccco2)c(C)c1 [Compound 2{18}] | > 32 | ~100 | – | – | – | –
2 | N#Cc1ccc(CSc2nnc(-c3ccccn3)n2Cc2cccs2)cc1 [Compound 2{28}] | > 32 | ~142 | 3.5 | 4.64 | – | –
3 | Fc1ccc(CSc2nnc(-c3ccccn3)n2Cc2ccco2)c(F)c1F [Compound 2{43}] | > 32 | ~140 | 5.3 | 7 | – | –
4 | COc1cccc(CSc2nnc(-c3ccccn3)n2Cc2cccs2)c1 [Compound 2{38}] | > 32 | ~100 | 12.2 | 8.72 | – | –
5 | Cc1c(CSc2nnc(-c3ccccn3)n2Cc2ccco2)cccc1[N+](=O)[O-] [Compound 2{39}] | > 32 | ~128 | 12 | 8.21 | – | –
6 | COC(=O)c1ccc(CSc2nnc(-c3ccccn3)n2Cc2ccco2)cc1 [Compound 2{29}] | > 32 | ~125 | 18.5 | 6.62 | – | –
7 | CC(C)c1ccc(CSc2nnc(-c3ccccn3)n2Cc2ccco2)cc1 [Compound 2{33}] | > 32 | 165 | 2.8 | 5.97 | – | –
8 | Clc1ccc(CSc2nnc(-c3ccccn3)n2Cc2cccs2)cc1Cl [2{9}, 2-(5-((3,4-Dichlorobenzyl)thio)-4-(thiophen-2-ylmethyl)-4H-1,2,4-triazol-3-yl)pyridine] | > 32 | – | 0.43 | 0.73 ± 0.11 | ~135 | –
9 | c1ccc(CSc2nnc(-c3ccccn3)n2Cc2ccccc2)cc1 [Entry 5] | – | – | – | – | – | > 20
10 | FC(F)(F)c1ccc(CSc2nnc(-c3ccccn3)n2Cc2cccs2)cc1 [Compound 2{15}] | > 32 | ~149 | 0.6 | 1.23 | – | –
11 | O=[N+]([O-])c1ccc(CSc2nnc(-c3ccccn3)n2Cc2ccco2)cc1 [Compound 2{25}] | > 32 | ~120 | 2.35 | 2.48 | – | –
12 | COC(=O)c1ccc(CSc2nnc(-c3ccccn3)n2Cc2cccs2)cc1 [Compound 2{30}] | > 32 | ~154 | 6 | 6.14 | – | –
13 | COc1ccc(Cn2c(SCc3ccc(Cl)c(Cl)c3)nnc2-c2ccccn2)cc1 [Entry 3] | – | – | – | – | – | 11.8
14 | COc1ccc(Cn2c(SCc3ccc(Br)cc3)nnc2-c2ccccn2)cc1 [Entry 2] | – | – | – | – | – | > 20
15 | FC(F)(F)c1cc(CSc2nnc(-c3ccccn3)n2Cc2ccccc2Cl)ccc1Cl [Entry 16] | – | – | – | – | – | 4.3
16 | Clc1ccc(CSc2nnc(-c3ccccn3)n2Cc2ccccc2)cc1Cl [Entry 7] | – | – | – | – | – | 1.24
17 | FC(F)(F)c1cc(CSc2nnc(-c3ccc(Br)cc3)n2Cc2ccco2)ccc1Cl [Entry 24] | – | – | – | – | – | 13.3
18 | Cc1ccc(CSc2nnc(-c3ccccn3)n2Cc2cccs2)cc1 [Compound 2{13}] | > 32 | ~170 | 2.38 | 3.59 ± 0.3 | – | –
19 | Brc1ccc(CSc2nnc(-c3ccc(Br)cc3)n2Cc2ccco2)cc1 [Entry 22] | – | – | – | – | – | 13.5
20 | Brc1ccc(CSc2nnc(-c3ccccn3)n2Cc2ccco2)cc1 [Compound 2{3}] | > 32 | ~100 | 1.36 | 1.92 ± 0.05 | – | –
21 | N#Cc1ccc(CSc2nnc(-c3ccccn3)n2Cc2ccco2)cc1 [Compound 2{27}] | > 32 | ~105 | 19 | 6.79 | – | –
22 | Clc1ccc(CSc2nnc(-c3ccccn3)n2Cc2cccnc2)cc1Cl [Entry 11] | – | – | – | – | – | 0.76
23 | Brc1ccc(CSc2nnc(-c3ccccn3)n2Cc2cccs2)cc1 [Compound 2{4}] | > 32 | ~185 | 1.1 | 1.85 ± 0.11 | – | –
24 | Brc1ccc(CSc2nnc(-c3ccccn3)n2Cc2cccnc2)cc1 [Entry 10] | – | – | – | – | – | 8.51
25 | Clc1cccc(CSc2nnc(-c3ccccn3)n2Cc2ccco2)c1 [Compound 2{7}] | > 32 | – | 3.63 | 6.76 ± 0.01 | ~100 | –
26 | Fc1ccc(CSc2nnc(-c3ccccn3)n2Cc2cccs2)c(F)c1F [Compound 2{44}] | > 32 | ~115 | 1.7 | 3.04 | – | –

Row | SMILES | EC50 (MOR) [µM] | Emax (%) (KOR [1]) | EC50 (KOR [2]) [µM] | EC50 (KOR [1]; [3]) [µM] | Emax (KOR [1]) [%] | EC50 (KOR [1]; [4]) [µM]
27 | Brc1ccc(CSc2nnc(-c3ccccn3)n2Cc2ccccc2)cc1 [Entry 6] | – | – | – | – | – | 4.06
28 | Clc1ccccc1Cn1c(SCc2ccccc2)nnc1-c1ccccn1 [Entry 13] | – | – | – | – | – | > 20
29 | Fc1cc(F)cc(CSc2nnc(-c3ccccn3)n2Cc2ccco2)c1 [Compound 2{16}] | > 32 | ~104 | 21 | 7.89 | – | –
30 | FC(F)(F)c1ccc(CSc2nnc(-c3ccccn3)n2Cc2ccco2)cc1 [Compound 2{14}] | > 32 | ~166 | 1.25 | 2.77 | – | –
31 | FC(F)(F)c1cc(CSc2nnc(-c3ccccn3)n2Cc2ccco2)ccc1Cl [Compound 2{10}] | > 32 | ~122 | 0.46 | 0.5 | – | –
32 | Fc1ccc(CSc2nnc(-c3ccccn3)n2Cc2cccs2)c(F)c1 [Compound 2{24}] | > 32 | ~155 | 5.68 | 6.74 ± 0.97 | – | –
33 | Brc1ccc(-c2nnc(SCc3ccccc3)n2Cc2ccco2)cc1 [Entry 21] | – | – | – | – | – | > 20
34 | Cc1cc(C)c(CSc2nnc(-c3ccccn3)n2Cc2cccs2)c(C)c1 [Compound 2{19}] | > 32 | – | 9.5 | > 20 | – | –
35 | COc1ccc(Cn2c(SCc3ccccc3)nnc2-c2ccccn2)cc1 [Entry 1] | – | – | – | – | – | > 20
36 | c1ccc(CSc2nnc(-c3ccccn3)n2Cc2cccnc2)cc1 [Entry 9] | – | – | – | – | – | > 20
37 | c1ccc(CSc2nnc(-c3ccncc3)n2Cc2ccco2)cc1 [Entry 17] | – | – | – | – | – | > 20
38 | Clc1ccc(CSc2nnc(-c3ccccn3)n2Cc2cccs2)c(Cl)c1 [Compound 2{2}] | > 32 | ~120 | 8.11 | 2.27 ± 0.46 | – | –
39 | Clc1ccc(CSc2nnc(-c3ccc(Br)cc3)n2Cc2ccco2)cc1Cl [Entry 23] | – | – | – | – | – | 11
40 | O=[N+]([O-])c1ccc(CSc2nnc(-c3ccccn3)n2Cc2cccs2)cc1 [Compound 2{26}] | > 32 | ~128 | 0.96 | 1.24 | – | –
41 | CC(=O)Oc1ccc(CSc2nnc(-c3ccccn3)n2Cc2cccs2)cc1 [Compound 2{32}] | > 32 | – | > 32 | > 20 | – | –
42 | Fc1ccc(CSc2nnc(-c3ccccn3)n2Cc2cccs2)c(C(F)(F)F)c1 [Compound 2{46}] | > 32 | ~109 | 2.25 | 4.46 | – | –
43 | FC(F)(F)c1cc(CSc2nnc(-c3ccccn3)n2Cc2ccccc2)ccc1Cl [Entry 8] | – | – | – | – | – | 2.22
44 | CC(=O)Oc1ccc(CSc2nnc(-c3ccccn3)n2Cc2ccco2)cc1 [Compound 2{31}] | > 32 | – | > 32 | > 20 | – | –
45 | FC(F)(F)c1cc(CSc2nnc(-c3ccncc3)n2Cc2ccco2)ccc1Cl [Entry 20] | – | – | – | – | – | > 20
46 | Cc1c(CSc2nnc(-c3ccccn3)n2Cc2cccs2)cccc1[N+](=O)[O-] [Compound 2{40}] | > 32 | ~105 | 4.2 | 5.81 | – | –
47 | COc1ccc(Cn2c(SCc3ccc(Cl)c(C(F)(F)F)c3)nnc2-c2ccccn2)cc1 [Entry 4] | – | – | – | – | – | > 19.7
48 | Clc1ccccc1CSc1nnc(-c2ccccn2)n1Cc1cccs1 [Compound 2{48}] | > 32 | ~100 | 4.1 | 10.2 | – | –
49 | Fc1ccc(CSc2nnc(-c3ccccn3)n2Cc2ccco2)c(C(F)(F)F)c1 [Compound 2{45}] | > 32 | ~138 | 5.4 | 8.27 | – | –
50 | CC(C)(C)c1ccc(CSc2nnc(-c3ccccn3)n2Cc2ccco2)cc1 [2{6}] | > 32 | – | 0.6 | 2.01 ± 0.07 | ~100 | –
51 | Clc1ccc(CSc2nnc(-c3ccccn3)n2Cc2ccco2)c(Cl)c1 [Compound 2{1}] | > 32 | ~100 | 0.93 | 1.86 ± 0.07 | – | –
